Assay [1] concerns the target T1, catalytic domain of human Bub1 (amino acids 704-1085) (Homo sapiens, UniProt O43683).
T1 construct: catalytic domain of human Bub1 (amino acids 704-1085); His6 (N); made in house; host or cells: Hi5 insect cells
The experiment in a line: Bub1 kinase assay (TR-FRET). The class given is biochemical. The protocol: To this end, 100-fold concentrated compound solutions (in DMSO) were previously prepared by serial dilution (1:3.4) of 2 mM stocks in a clear low volume 384-well source microtiter plate (Greiner Bio-One, Frickenhausen, Germany), from which 50 nL of compounds were transferred into a black low volume test microtiter plate from the same supplier. […] The resulting mixture (5 μL final volume) was incubated at 22° C. during 60 min., and the reaction was stopped by the addition of 5 μL of an aqueous EDTA-solution (50 mM EDTA, in 100 mM HEPES pH 7.5 and 0.2% (w/v) bovine serum albumin) which also contained the TR-FRET detection reagents (0.2 μM streptavidin-XL665 [Cisbio Bioassays, Codolet, France] and 1 nM anti-phosho-Serine antibody [Merck Millipore, cat. #35-001] and 0.4 nM LANCE EU-W1024 labeled anti-mouse IgG antibody [Perkin-Elmer, product no. AD0077, alternatively a Terbium-cryptate-labeled anti-mouse IgG antibody from Cisbio Bioassays can be used]). The stopped reaction mixture was further incubated 1 h at 22° C. in order to allow the formation of complexes between peptides and detection reagents. Subsequently, the amount of product was evaluated by measurement of the resonance energy transfer from the Eu-chelate-antibody complex recognizing the Phosphoserine residue to the streptavidin-XL665 bound to the biotin moiety of the peptide. […] IC50 values were calculated by fitting the normalized inhibition data to a 4-parameter logistic equation (Minimum, Maximum, IC50, Hill; Y=Max+(Min−Max)/(1+(X/IC50)Hill)).

The test system of assay [2] is HeLa human cervical cancer cell line. Nature of the assay: Proliferation assay (HeLa cell line).
Method: Cultivated tumor cells (cells were ordered from ATCC) were plated at a density of 3000 cells/well in a 96-well multititer plate in 200 μL of growth medium supplemented 10% fetal calf serum. After 24 hours, the cells of one plate (zero-point plate) were stained with crystal violet (see below), while the medium of the other plates was replaced by fresh culture medium (200 μL), to which the test substances were added in various concentrations (0 μM, as well as in the range of 0.001-10 μM; the final concentration of the solvent dimethyl sulfoxide was 0.5%). The cells were incubated for 4 days in the presence of test substances. Cell proliferation was determined by staining the cells with crystal violet: the cells were fixed by adding 20 μL/measuring point of an 11% glutaric aldehyde solution for 15 minutes at room temperature. After three washing cycles of the fixed cells with water, the plates were dried at room temperature. The cells were stained by adding 100 μL/measuring point of a 0.1% crystal violet solution (pH 3.0). After three washing cycles of the stained cells with water, the plates were dried at room temperature. The dye was dissolved by adding 100 μL/measuring point of a 10% acetic acid solution. Absorption was determined by photometry at a wavelength of 595 nm. The change of cell number, in percent, was calculated by normalization of the measured values to the absorption values of the zero-point plate (=0%) and the absorption of the untreated (0 μm) cells (=100%). The IC50 values were determined by means of a 4 parameter fit.
In assay [3] the test system is HeLa human cervical tumor cells. The experiment in a line: Proliferation Assay (HeLa+Paclitaxel). Conditions: read-out: Biological Assay 3.0: Proliferation Assay (HeLa + Paclitaxel):, 3 nM paclitaxel, 92 hours with test substance.
Method: Proliferation Assay (HeLa+Paclitaxel):
Cultivated HeLa human cervical tumor cells (DSMZ ACC-57) were plated at a density of 3000 cells/well in a 96-well multititer plate in 200 μL of growth medium supplemented 10% fetal calf serum. After 24 hours, the cells of one plate (zero-point plate) were stained with crystal violet (see below). The medium of the other plates was supplemented with 3 nM of paclitaxel (Sigma-Aldrich) and the cells were incubated at 37° C. After 4 hours the test substances were added in various concentrations (0 μM, as well as in the range of 0.001-10 μM; the final concentration of the solvent dimethyl sulfoxide was adjusted to 0.1%) using a Hewlett-Packard HP D300 Digital Dispenser. The cells were incubated for another 92 hours at 37° C. in the presence of test substances. Cell proliferation was determined by staining the cells with crystal violet: the cells were fixed by adding 20 μL/measuring point of an 11% glutaric aldehyde solution for 15 minutes at room temperature. After three washing cycles of the fixed cells with water, the plates were dried at room temperature. The cells were stained by adding 100 μL/measuring point of a 0.1% crystal violet solution (pH 3.0). After three washing cycles of the stained cells with water, the plates were dried at room temperature. The dye was dissolved by adding 100 μL/measuring point of a 10% acetic acid solution. Absorption was determined by photometry at a wavelength of 595 nm. The change of cell number, in percent, was calculated by normalization of the measured values to the absorption values of the zero-point plate (=0%) and the absorption of the untreated (0 μm) cells (=100%). The IC50 values were determined by means of a 4 parameter fit.
[4] abbreviates: 10 μM ATP, 1 μM peptide substrate, read-out: Biological Assay 1: Bub1 kinase assay median IC50.
Setting [5] is: Homo sapiens, 96 h, read-out: Biological Assay 2: Proliferation assay (HeLa cell line) median IC50.
Setting [6] is: Homo sapiens, 96 h, read-out: Biological Assay 2: Proliferation assay (HeLa cell line) median IC50, HeLa, 4 days incubation, crystal violet.

Each structure is given as a SMILES string. Read-outs that look alike come from different tables or passages of the source.

T1 sequence (O43683 704-1085): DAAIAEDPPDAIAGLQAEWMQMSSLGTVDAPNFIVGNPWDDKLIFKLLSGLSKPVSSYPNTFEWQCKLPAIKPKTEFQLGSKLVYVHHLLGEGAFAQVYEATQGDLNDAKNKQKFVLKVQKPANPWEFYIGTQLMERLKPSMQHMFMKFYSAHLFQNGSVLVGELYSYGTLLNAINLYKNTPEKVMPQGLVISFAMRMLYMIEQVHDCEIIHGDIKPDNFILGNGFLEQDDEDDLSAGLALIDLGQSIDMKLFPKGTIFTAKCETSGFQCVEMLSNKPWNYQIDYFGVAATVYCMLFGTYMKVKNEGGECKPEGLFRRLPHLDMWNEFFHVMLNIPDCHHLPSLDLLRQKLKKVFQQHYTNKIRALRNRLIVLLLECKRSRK

Regarding `CCOc1cc(F)c(Cn2nc(-c3ncc(OCCCN4CCN(C)CC4)c(Nc4cc(C)ncc4C)n3)c3ccccc32)c(F)c1` [Example 2-1-10, N-(2,5-dimethylpyridin-4-yl)-2-[1-(4-ethoxy-2,6-difluorobenzyl)-1H-indazol-3-yl]-5-[3-(4-methylpiperazin-1-yl)propoxy]pyrimidin-4-amine], the IC50 amounted to 250 nM in assay [1] (setting [4]), 550 nM in assay [2] (setting [5]) and 160 nM in assay [3].
Consider `CCOc1cc(F)c(Cn2nc(-c3ncc(OCCCN4CCOCC4)c(Nc4ccnc(NC(C)=O)c4)n3)c3ccccc32)c(F)c1` [Example 2-1-3, N-[4-({2-[1-(4-ethoxy-2,6-difluorobenzyl)-1H-indazol-3-yl]-5-[3-(morpholin-4-yl)-propoxy]pyrimidin-4-yl}amino)pyridin-2-yl]acetamide], for which the values for the IC50 in assay [1] (setting [4]), in assay [2] (setting [5]) and in assay [3] were 6.8 nM, 3400 nM and 78 nM, respectively.
The corresponding values for `Fc1cc(OCC(F)F)cc(F)c1Cn1nc(-c2ncc(OCCCN3CCOCC3)c(Nc3ccncn3)n2)c2ccccc21` [Example 2-1-9, 2-{1-[4-(2,2-difluoroethoxy)-2,6-difluorobenzyl]-1H-indazol-3-yl}-5-[3-(morpholin-4-yl)propoxy]-N-(pyrimidin-4-yl)pyrimidin-4-amine] are 19 nM, 3700 nM and 490 nM.
On to `CCOc1cc(F)c(Cn2nc(-c3ncc(OCCCCN4CC(F)(F)C4)c(Nc4ccnc(C)n4)n3)c3ccccc32)c(F)c1` [Example 2-3-2, 5-[4-(3,3-difluoroazetidin-1-yl)butoxy]-2-[1-(4-ethoxy-2,6-difluorobenzyl)-1H-indazol-3-yl]-N-(2-methylpyrimidin-4-yl)pyrimidin-4-amine], for which the IC50 was found to be 34 nM in assay [1], 9300 nM in assay [2] (setting [6]) and 26 nM in assay [3].
The corresponding values for `CCOc1cc(F)c(Cn2nc(-c3ncc(OCCCCN4CCC(F)(F)CC4)c(Nc4cc(C)ncc4C)n3)c3ccccc32)c(F)c1` [Example 2-3-5, 5-[4-(4,4-difluoropiperidin-1-yl)butoxy]-N-(2,5-dimethylpyridin-4-yl)-2-[1-(4-ethoxy-2,6-difluorobenzyl)-1H-indazol-3-yl]pyrimidin-4-amine] are 230 nM, 6800 nM and 31 nM.
As to `CCOc1cc(F)c(Cn2nc(-c3ncc(OCCCCN4CC(F)(F)C4)c(Nc4ccncc4Cl)n3)c3ccccc32)c(F)c1` [Example 2-2-1, N-(3-chloropyridin-4-yl)-5-[4-(3,3-difluoroazetidin-1-yl)butoxy]-2-[1-(4-ethoxy-2,6-difluorobenzyl)-1H-indazol-3-yl]pyrimidin-4-amine], the IC50 was found to be 19 nM in assay [1], 9000 nM in assay [2] (setting [6]) and 140 nM in assay [3].
Consider `CCOc1cc(F)c(Cn2nc(-c3ncc(OCCCCN4CC(F)C4)c(Nc4cc(C)ncc4C)n3)c3ccccc32)c(F)c1` [Example 2-3-1, N-(2,5-dimethylpyridin-4-yl)-2-[1-(4-ethoxy-2,6-difluorobenzyl)-1H-indazol-3-yl]-5-[4-(3-fluoroazetidin-1-yl)butoxy]pyrimidin-4-amine], for which the IC50 turned out to be 39 nM in assay [1], 1400 nM in assay [2] (setting [6]) and 33 nM in assay [3].
For the compound `CCOc1cc(F)c(Cn2nc(-c3ncc(OCCN4CCOCC4)c(Nc4ccncc4)n3)c3ccccc32)c(F)c1` [Example 3-1-1, 2-[1-(4-ethoxy-2,6-difluorobenzyl)-1H-indazol-3-yl]-5-[2-(morpholin-4-yl)ethoxy]-N-(pyridin-4-yl)pyrimidin-4-amine, reference compound], the IC50 is 9000 nM in assay [2] (setting [6]); more than 10000 nM in assay [2] (read-out: Biological Assay 2: Proliferation assay (HeLa cell line) median IC50, 4 days incubation, crystal violet); 260 nM in assay [3].
For the compound `Fc1cc(OCC2CC2)cc(F)c1Cn1nc(-c2ncc(OCCCN3CCOCC3)c(Nc3ccncc3Cl)n2)c2ccccc21` [Example 2-1-2, N-(3-chloropyridin-4-yl)-2-{1-[4-(cyclopropylmethoxy)-2,6-difluorobenzyl]-1H-indazol-3-yl}-5-[3-(morpholin-4-yl)propoxy]pyrimidin-4-amine], the IC50 is 50 nM in assay [1] (setting [4]), 5800 nM in assay [2] (setting [5]) and 760 nM in assay [3].
With `CCOc1cc(F)c(Cn2nc(-c3ncc(OCCCN4CCN(CC(F)(F)F)CC4)c(Nc4ccnc(NC(C)=O)c4)n3)c3ccccc32)c(F)c1` [Example 2-1-5, N-{4-[(2-[1-(4-ethoxy-2,6-difluorobenzyl)-1H-indazol-3-yl]-5-{3-[4-(2,2,2-tri-fluoroethyl)piperazin-1-yl]propoxy}pyrimidin-4-yl)amino]pyridin-2-yl}acetamide], the IC50 was 23 nM in assay [1], more than 10000 nM in assay [2] (setting [6]) and 440 nM in assay [3].
Turning to `CCOc1cc(F)c(Cn2nc(-c3ncc(OCCCN4CCN(C)CC4)c(Nc4ccnc(C)n4)n3)c3ccccc32)c(F)c1` [Example 2-1-7, 2-[1-(4-ethoxy-2,6-difluorobenzyl)-1H-indazol-3-yl]-5-[3-(4-methylpiperazin-1-yl)propoxy]-N-(2-methylpyrimidin-4-yl)pyrimidin-4-amine], the IC50 in assay [1] (setting [4]) was found to be 12 nM; in assay [2] (setting [5]) it was 3700 nM; in assay [3] it was 430 nM.
On to `CCOc1cc(F)c(Cn2nc(-c3ncc(OCCCN4CCN(C)CC4)c(Nc4ccnc(C)c4)n3)c3ccccc32)c(F)c1` [Example 2-1-8, 2-[1-(4-ethoxy-2,6-difluorobenzyl)-1H-indazol-3-yl]-5-[3-(4-methylpiperazin-1-yl)propoxy]-N-(2-methylpyridin-4-yl)pyrimidin-4-amine], for which the IC50 came out at 28 nM in assay [1] (setting [4]), 1200 nM in assay [2] (setting [5]) and 370 nM in assay [3].
The corresponding values for `CCOc1cc(F)c(Cn2nc(-c3ncc(OCCCN4CCN(C)CC4)c(Nc4ccnc(NC(C)=O)c4)n3)c3ccccc32)c(F)c1` [Example 2-1-4, N-[4-({2-[1-(4-ethoxy-2,6-difluorobenzyl)-1H-indazol-3-yl]-5-[3-(4-methylpiperazin-1-yl)propoxy]pyrimidin-4-yl}amino)pyridin-2-yl]acetamide] are 4.6 nM, 2000 nM and 160 nM.
With `CCOc1cc(F)c(Cn2nc(-c3ncc(OC[C@H](C)NCC(F)(F)F)c(Nc4ccnc(C)n4)n3)c3ccccc32)c(F)c1` [Example 2-4-1, 2-[1-(4-ethoxy-2,6-difluorobenzyl)-1H-indazol-3-yl]-N-(2-methylpyrimidin-4-yl)-5-({(2S)-2-[(2,2,2-trifluoroethyl)amino]propyl}oxy)pyrimidin-4-amine], the results for the IC50 in assay [1], in assay [2] (setting [6]) and in assay [3] were 11 nM, 880 nM and 140 nM, respectively.
`Cc1cc(Nc2nc(-c3nn(Cc4c(F)cc(OCC5CC5)cc4F)c4ccccc34)ncc2OCCCN2CCOCC2)ccn1` [Example 2-1-11, 2-{1-[4-(cyclopropylmethoxy)-2,6-difluorobenzyl]-1H-indazol-3-yl}-N-(2-methylpyridin-4-yl)-5-[3-(morpholin-4-yl)propoxy]pyrimidin-4-amine]: the IC50 in assay [1] (setting [4]) was found to be 370 nM.
`CCOc1cc(F)c(Cn2nc(-c3ncc(OCCCCN4CC(F)C4)c(Nc4ccnc(C)n4)n3)c3ccccc32)c(F)c1` [Example 2-3-3, 2-[1-(4-ethoxy-2,6-difluorobenzyl)-1H-indazol-3-yl]-5-[4-(3-fluoroazetidin-1-yl)butoxy]-N-(2-methylpyrimidin-4-yl)pyrimidin-4-amine]: the IC50 in assay [1] was determined as 12 nM; in assay [2] (setting [6]), 3700 nM; in assay [3], 23 nM.
On to `CCOc1cc(F)c(Cn2nc(-c3ncc(OCCCCN4CCC(F)(F)CC4)c(Nc4ccnc(C)n4)n3)c3ccccc32)c(F)c1` [Example 2-3-4, 5-[4-(4,4-difluoropiperidin-1-yl)butoxy]-2-[1-(4-ethoxy-2,6-difluorobenzyl)-1H-indazol-3-yl]-N-(2-methylpyrimidin-4-yl)pyrimidin-4-amine], for which the values for the IC50 in assay [1], in assay [2] (setting [6]) and in assay [3] were 49 nM, more than 10000 nM and 51 nM, respectively.
In the case of `CN1CCN(CCCOc2cnc(-c3nn(Cc4c(F)cc(OCC5CC5)cc4F)c4ccccc34)nc2Nc2ccncc2Cl)CC1` [Example 2-1-1, N-(3-chloropyridin-4-yl)-2-{1-[4-(cyclopropylmethoxy)-2,6-difluorobenzyl]-1H-indazol-3-yl}-5-[3-(4-methylpiperazin-1-yl)propoxy]pyrimidin-4-amine], the IC50 in assay [1] (setting [4]) turned out to be 10 nM; in assay [2] (setting [5]) it was 1100 nM; in assay [3], 69 nM.

Values taken from patent US20170275269A1, “BENZYL SUBSTITUTED INDAZOLES AS BUB1 KINASE INHIBITORS” (Bayer Pharma Aktiengesellschaft, priority 2014, published 2017).
